For this assay, the system named is RSV (Group A, Long Strain). The experiment in a line: Antiviral (RSV) assay: cytopathetic effect (CPE) protection assay in HEp-2 cells, MTT readout. The settings on record: human respiratory syncytial virus, HEp-2, 96 h, Table 1, 0.2 MOI RSV, 4 days incubation, protection from CPE. In kind it is cell-based, human respiratory syncytial virus (RSV). The procedure: HEp-2 cells and RSV (Group A, Long Strain) were obtained from the American Type Culture Collection (Manassas, Va.). A cytopathetic effect (CPE) protection assay was performed to determine the ability of a compound to protect the cells from viral infection and thus the CPE induced by viral infection. 96-well plates were first seeded with 3×10^3 HEp-2 cells per well in Dulbecco's modified Eagle's medium (DMEM) containing 10% fetal bovine serum (FBS). One day after the cells were seeded, they were preincubated with serial dilutions of compounds prepared in 100 μL assay medium (DMEM mixed with F12 medium at a 1:1 ratio, supplemented with 2% FBS and 1 mM sodium pyruvate) for 1 hour at 37° C. 100 μL of assay medium containing 0.2 multiplicity of infection (MOI) of RSV was then added to each well of cells. In addition to wells containing infected cells incubated with compounds, each plate also contained replicates of two kinds of controls: (1) Virus control contained cells infected with 0.2 MOI of RSV in assay medium, (2) Uninfected cell control contained cells incubated with assay medium only. After 4 days of incubation at 37° C., the viability of cells was assessed using MTT (Thiazolyl blue tetrazolium bromide, Sigma). A stock solution of MTT, at a concentration of 4 mg/mL in phosphate-buffered saline, was added to all wells at 25 μL per well. Plates were further incubated for 4 hours, and each well was then treated with 50 μL of a solution containing 20% sodium dodecyl sulfate (SDS) and 0.02 N HCl. After an overnight incubation, the plates were measured on a BioTek® microtiter plate reader at wavelengths of 570 nm and 650 nm. The MTT detection is based on the fact that viable (uninfected) cells can reduce the tetrazolium salts into colored formazan products, which can then be quantitated by spectrometry. […] Compounds were tested to determine both their antiviral and toxicity to determine their therapeutic window. Determination of the EC50 and TD50 of these active compounds were repeated one additional time to confirm the window.

The results in this text go back to patent US9447051B2, “Diaminopyrimidines and uses thereof” (AbbVie inc., priority 2012, dated 2016).

In the case of `Cc1nc(NCc2ccccn2)nc(Nc2cccc(OC(F)(F)F)c2)c1C` [Example 53, 5,6-dimethyl-N^2-(pyridin-2-ylmethyl)-N^4-[3-(trifluoromethoxy)phenyl]pyrimidine-2,4-diamine], the EC50 was 38 nM.
For `Cc1nc(NCc2cccnc2)nc(NC2CCCCC2)c1C` [Example 6, N^4-cyclohexyl-5,6-dimethyl-N^2-(pyridin-3-ylmethyl)pyrimidine-2,4-diamine], a half-maximal effect (EC50) was put at 240 nM. Compared with the last compound, the EC50 is about 6.3-fold higher.
`Cc1nc(NCc2ccccn2)nc(Nc2ccon2)c1C` [Example 95, 5,6-dimethyl-N^4-(1,2-oxazol-3-yl)-N^2-(pyridin-2-ylmethyl)pyrimidine-2,4-diamine] showed an EC50 of 5300 nM.
`Cc1nc(NCc2ccccn2)nc(NC2CCC2)c1C` [Example 47, N^4-cyclobutyl-5,6-dimethyl-N^2-(pyridin-2-ylmethyl)pyrimidine-2,4-diamine] returned a concentration for a half-maximal effect (EC50) above 5300 nM.
In turn, `Cc1nc(NCc2ccccn2)nc(NCC2CCCCC2)c1C` [Example 92, N^4-(cyclohexylmethyl)-5,6-dimethyl-N^2-(pyridin-2-ylmethyl)pyrimidine-2,4-diamine] had an EC50 of 1100 nM.
`Cc1nc(NCc2ccccn2)nc(Nc2cccc(C(F)(F)F)c2)c1C` [Example 54, 5,6-dimethyl-N^2-(pyridin-2-ylmethyl)-N^4-[3-(trifluoromethyl)phenyl]pyrimidine-2,4-diamine]: it took 25 nM to reach a half-maximal effect (EC50).
As to `COc1ccnc(CNc2nc(C)c(C)c(NC3CCCCC3)n2)c1` [Example 18, N^4-cyclohexyl-N^2-[(4-methoxypyridin-2-yl)methyl]-5,6-dimethylpyrimidine-2,4-diamine], a half-maximal effect (EC50) was put at 310 nM.
Take `Cc1nc(NCc2ccccn2)nc(NC2CCC(C(F)(F)F)CC2)c1C` (stereo not drawn) [Example 31, 5,6-dimethyl-N^2-(pyridin-2-ylmethyl)-N^4-[4-(trifluoromethyl)cyclohexyl]pyrimidine-2,4-diamine]: the EC50 is above 9600 nM.
As for `Cc1nc(NCc2ccccn2)nc(NC2CCC(O)C2)c1C` (stereo not drawn) [Example 34, 3-({5,6-dimethyl-2-[(pyridin-2-ylmethyl)amino]pyrimidin-4-yl}amino)cyclopentanol], it took 4300 nM to reach a half-maximal effect (EC50).
Compound `Cc1nc(NCc2ccccn2)nc(Nc2ccc(F)cc2)c1C` [Example 50, N^4-(4-fluorophenyl)-5,6-dimethyl-N^2-(pyridin-2-ylmethyl)pyrimidine-2,4-diamine] registered an EC50 of 100 nM.
For the compound `Cc1nc(NCc2ccccn2)nc(Nc2ccccc2OC(F)(F)F)c1C` [Example 59, 5,6-dimethyl-N^2-(pyridin-2-ylmethyl)-N^4-[2-(trifluoromethoxy)phenyl]pyrimidine-2,4-diamine], it took 30 nM to reach a half-maximal effect (EC50).
In turn, `Cc1nc(NCc2ccccn2)nc(NC2CCCC(O)C2)c1C` (stereo not drawn) [Example 85, 3-({5,6-dimethyl-2-[(pyridin-2-ylmethyl)amino]pyrimidin-4-yl}amino)cyclohexanol] had an EC50 of 1380 nM.
For the compound `Cc1nc(NCc2cccs2)nc(NC2CCCCC2)c1C` [Example 22, N^4-cyclohexyl-5,6-dimethyl-N^2-(2-thienylmethyl)pyrimidine-2,4-diamine], the EC50 is 69 nM. This EC50 is about 20-fold lower than that of the compound before.
In turn, `Cc1nc(NCc2cccc(F)c2)nc(NC2CCCCC2)c1C` [Example 13, N^4-cyclohexyl-N^2-(3-fluorobenzyl)-5,6-dimethylpyrimidine-2,4-diamine] showed a 50% effective concentration (EC50) above 1000 nM.
Turning to `Cc1nc(NCc2ccccn2)nc(NC2CCS(=O)(=O)C2)c1C` (stereo not drawn) [Example 70, N^4-(1,1-dioxidotetrahydrothiophen-3-yl)-5,6-dimethyl-N^2-(pyridin-2-ylmethyl)pyrimidine-2,4-diamine], the EC50 is 950 nM.
In turn, `Cc1nc(NCc2ccccn2)nc(Nc2ccc3c(c2)OCO3)c1C` [Example 61, N^4-(1,3-benzodioxol-5-yl)-5,6-dimethyl-N^2-(pyridin-2-ylmethyl)pyrimidine-2,4-diamine] had an EC50 of 40 nM.
As for `Cc1nc(NCc2ccccn2)nc(Nc2cc(F)ccc2F)c1C` [Example 60, N^4-(2,5-difluorophenyl)-5,6-dimethyl-N^2-(pyridin-2-ylmethyl)pyrimidine-2,4-diamine], a half-maximal response (EC50) required 100 nM. This EC50 is about 2.5-fold higher than that of the compound before.
In turn, `Cc1cccc(Nc2nc(NCc3ccccn3)nc(C)c2C)c1` [Example 69, 5,6-dimethyl-N^4-(3-methylphenyl)-N^2-(pyridin-2-ylmethyl)pyrimidine-2,4-diamine] displayed an EC50 of 110 nM.
Compound `Cc1cc(F)ccc1Nc1nc(NCc2ccccn2)nc(C)c1C` [Example 75, N^4-(4-fluoro-2-methylphenyl)-5,6-dimethyl-N^2-(pyridin-2-ylmethyl)pyrimidine-2,4-diamine] displayed an EC50 of 26 nM.
`Cc1nc(NCc2ccccn2)nc(Nc2ccccc2)c1C` [Example 52, 5,6-dimethyl-N^4-phenyl-N^2-(pyridin-2-ylmethyl)pyrimidine-2,4-diamine] came in with a concentration giving a half-maximal response (EC50) of 270 nM. This EC50 is about 10-fold higher than that of the compound before.
`Cc1nc(NCc2ccccn2)nc(NC2CCC(F)(F)CC2)c1C` [Example 32, N^4-(4,4-difluorocyclohexyl)-5,6-dimethyl-N^2-(pyridin-2-ylmethyl)pyrimidine-2,4-diamine]: the EC50 came out at 220 nM.
Compound `CCc1ccnc(CNc2nc(C)c(C)c(NC3CCC(F)(F)CC3)n2)c1` [Example 90, N^4-(4,4-difluorocyclohexyl)-N^2-[(4-ethylpyridin-2-yl)methyl]-5,6-dimethylpyrimidine-2,4-diamine] came in with an EC50 of 510 nM.
The compound `Cc1nc(NCc2cc(C(C)(C)C)ccn2)nc(NC2CCCCC2)c1C` [Example 21, N^2-[(4-tert-butylpyridin-2-yl)methyl]-N^4-cyclohexyl-5,6-dimethylpyrimidine-2,4-diamine] registered an EC50 above 6100 nM.
On to `Cc1nc(NC(C)c2ccccn2)nc(NC2CCCCC2)c1C` (stereo not drawn) [Example 87, N^4-cyclohexyl-5,6-dimethyl-N^2-[1-(pyridin-2-yl)ethyl]pyrimidine-2,4-diamine], for which the EC50 was above 32000 nM.
On to `Cc1nc(NCc2ccccn2)nc(NCC2CCCO2)c1C` (stereo not drawn) [Example 91, 5,6-dimethyl-N^2-(pyridin-2-ylmethyl)-N^4-(tetrahydrofuran-2-ylmethyl)pyrimidine-2,4-diamine], for which the response was half-maximal at 2200 nM (EC50).
`Cc1nc(NCc2ccc(C(F)(F)F)cc2)nc(NC2CCCCC2)c1C` [Example 12, N^4-cyclohexyl-5,6-dimethyl-N^2-[4-(trifluoromethyl)benzyl]pyrimidine-2,4-diamine] registered an EC50 above 950 nM.
In turn, `Cc1nc(NCc2ccccn2)nc(Nc2c(F)cccc2F)c1C` [Example 55, N^4-(2,6-difluorophenyl)-5,6-dimethyl-N^2-(pyridin-2-ylmethyl)pyrimidine-2,4-diamine] showed an EC50 of 140 nM. In other words, the sub-micromolar range.
The compound `Cc1nc(NCc2ccccn2)nc(NC2CCCc3ccccc32)c1C` (stereo not drawn) [Example 35, 5,6-dimethyl-N^2-(pyridin-2-ylmethyl)-N^4-(1,2,3,4-tetrahydronaphthalen-1-yl)pyrimidine-2,4-diamine] showed an EC50 of 120 nM.
In turn, `Cc1ccnc(CNc2nc(C)c(C)c(NC3CCC(F)(F)CC3)n2)c1` [Example 28, N^4-(4,4-difluorocyclohexyl)-5,6-dimethyl-N^2-[(4-methylpyridin-2-yl)methyl]pyrimidine-2,4-diamine] yielded an EC50 of 61 nM.
Consider `Cc1nc(NCc2ccccn2)nc(Nc2ccccc2Cl)c1C` [Example 66, N^4-(2-chlorophenyl)-5,6-dimethyl-N^2-(pyridin-2-ylmethyl)pyrimidine-2,4-diamine], for which the concentration for a half-maximal effect (EC50) is 34 nM. Against the preceding compound, the EC50 is about 1.8-fold lower.
As for `Cc1cccc(C)c1Nc1nc(NCc2ccccn2)nc(C)c1C` [Example 68, N^4-(2,6-dimethylphenyl)-5,6-dimethyl-N^2-(pyridin-2-ylmethyl)pyrimidine-2,4-diamine], the EC50 was determined as 9 nM.
The figure for `Cc1ccc(Nc2nc(NCc3ccccn3)nc(C)c2C)cc1` [Example 63, 5,6-dimethyl-N^4-(4-methylphenyl)-N^2-(pyridin-2-ylmethyl)pyrimidine-2,4-diamine] is 52 nM.
In the case of `CCC(CC)Nc1nc(NCc2ccccn2)nc(C)c1C` [Example 48, 5,6-dimethyl-N^4-(pentan-3-yl)-N^2-(pyridin-2-ylmethyl)pyrimidine-2,4-diamine], a half-maximal effect (EC50) was put at 270 nM.
As to `Cc1nc(NCc2cn(C)cn2)nc(NC2CCCCC2)c1C` [Example 24, N^4-cyclohexyl-5,6-dimethyl-N^2-[(1-methyl-1H-imidazol-4-yl)methyl]pyrimidine-2,4-diamine], the EC50 came out at 45 nM.
Compound `Cc1nc(NCc2ccc(F)cc2)nc(NC2CCCCC2)c1C` [Example 9, N^4-cyclohexyl-N^2-(4-fluorobenzyl)-5,6-dimethylpyrimidine-2,4-diamine] gave an EC50 above 3000 nM.
`Cc1nc(NCc2ccccn2)nc(NC2CCCC2)c1C` [Example 29, N^4-cyclopentyl-5,6-dimethyl-N^2-(pyridin-2-ylmethyl)pyrimidine-2,4-diamine] gave an EC50 of 920 nM.

Usually EC50 stands for the concentration at which the effect is half-maximal. Higher therefore signals a need for much substance.
